This is an account of results in ChEMBL document CHEMBL3301562, “MMV Box screening against Plasmodium falciparum protein kinases and aminoacyl tRNA synthetases”.

Common to all, as to assay type: functional
In assay [1] the target is T1, Cdk-related protein kinase 6 (Plasmodium falciparum, UniProt O77239).
T1 sequence (O77239 whole entry): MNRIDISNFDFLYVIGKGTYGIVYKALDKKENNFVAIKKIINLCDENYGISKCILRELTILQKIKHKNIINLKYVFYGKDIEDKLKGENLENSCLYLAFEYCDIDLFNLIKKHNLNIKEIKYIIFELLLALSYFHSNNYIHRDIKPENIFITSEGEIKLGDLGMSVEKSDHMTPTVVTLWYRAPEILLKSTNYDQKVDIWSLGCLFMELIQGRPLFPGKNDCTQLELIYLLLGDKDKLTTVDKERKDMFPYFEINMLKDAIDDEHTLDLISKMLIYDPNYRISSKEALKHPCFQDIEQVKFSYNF
Nature of the assay: Final concentrations were 1.5 uM ATP, 5 mM MnCl2, and 15 ug/ml PK6 in a buffer of 100 mM Tris-HCl (pH 7.5). 50 ug/mL MBP was provided as the substrate; 10 uM staurosporine was used as a control inhibitor. Incubation time was 3 hours and 40 minutes.The catalytic activity of each kinase was considered proportional to ATP consumed, as determined from measurements of residual [ATP] with the luciferase-based reagent Kinase-Glo (Promega) following incubation. Luminescence (proportional to residual [ATP]) was measured on the plate readers FLx800 (BioTek Instruments, Winooski, VT, USA) and MicroBeta2. (In general: Kinase-Glo reads ATP consumption through a luciferase reaction.)

Assay [2] addresses T2, Putative uncharacterized protein pk7 (Plasmodium falciparum, UniProt O96214).
T2 sequence (O96214 whole entry): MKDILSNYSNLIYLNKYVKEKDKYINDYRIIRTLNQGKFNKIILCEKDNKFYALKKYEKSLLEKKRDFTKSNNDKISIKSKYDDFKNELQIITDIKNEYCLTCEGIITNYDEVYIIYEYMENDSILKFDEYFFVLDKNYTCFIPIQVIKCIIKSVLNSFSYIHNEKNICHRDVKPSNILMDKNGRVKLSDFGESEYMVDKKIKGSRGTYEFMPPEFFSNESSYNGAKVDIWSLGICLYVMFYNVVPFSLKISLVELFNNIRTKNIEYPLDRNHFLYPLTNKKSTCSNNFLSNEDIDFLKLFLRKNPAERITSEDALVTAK
The experiment in a line: Final concentrations were 1 uM ATP, 2 mM DTT, 20 mM MgCl2, 2 mM MnCl2, 0.01% BSA, and 6 ug/ml PK7, in a buffer of 20 mM Tris-HCl (pH 7.5). The enzyme itself was the only substrate present (since autophosphorylation occurs); 100 uM 1NA-PP1 was used as a control inhibitor. Incubation time was 3 hours.

Assay [3] has as its target T3, Mitogen-activated protein kinase (Plasmodium falciparum, UniProt Q25917).
T3 sequence (Q25917 whole entry): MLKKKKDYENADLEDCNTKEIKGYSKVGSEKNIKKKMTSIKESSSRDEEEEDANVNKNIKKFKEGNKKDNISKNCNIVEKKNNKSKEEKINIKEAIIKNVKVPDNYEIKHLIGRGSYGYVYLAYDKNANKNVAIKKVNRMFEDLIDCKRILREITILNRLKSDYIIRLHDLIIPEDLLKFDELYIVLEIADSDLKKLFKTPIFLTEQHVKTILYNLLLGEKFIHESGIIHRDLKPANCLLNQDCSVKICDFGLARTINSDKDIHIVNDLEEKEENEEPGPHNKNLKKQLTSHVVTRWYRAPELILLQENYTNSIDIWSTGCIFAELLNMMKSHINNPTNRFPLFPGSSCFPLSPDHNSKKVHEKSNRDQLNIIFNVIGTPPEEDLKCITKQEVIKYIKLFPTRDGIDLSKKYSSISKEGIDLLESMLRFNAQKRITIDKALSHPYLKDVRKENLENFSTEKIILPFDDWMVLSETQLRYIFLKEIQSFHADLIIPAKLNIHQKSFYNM
Nature of the assay: Final concentrations were 1 uM ATP, 0.5 mM DTT, 1 mM MgCl2, 0.5 mg/mL BSA, and 10 ug/ml MAP2 in a buffer of 50 mM HEPES (pH 7.0). 0.5 mg/mL histone III-S served as the substrate (13); 100 uM AMP-PNP, an ATP analog, was used as a control inhibitor. Incubation time was 4 hours.

Assay [4] addresses Calcium-dependent protein kinase 1 (Plasmodium falciparum, UniProt P62344). The experiment in a line: MMV: CDPK1 Protein kinase inhibition assay using recombinant PfCDPK1, syntide 2 peptide substrate, ATP and KinaseGlo to measure % inhibition at 1 uM MMV box compound.
The target of assay [5] is T4, Calcium-dependent protein kinase 4 (Plasmodium falciparum (isolate 3D7), UniProt Q8IBS5).
T4 sequence (Q8IBS5 whole entry): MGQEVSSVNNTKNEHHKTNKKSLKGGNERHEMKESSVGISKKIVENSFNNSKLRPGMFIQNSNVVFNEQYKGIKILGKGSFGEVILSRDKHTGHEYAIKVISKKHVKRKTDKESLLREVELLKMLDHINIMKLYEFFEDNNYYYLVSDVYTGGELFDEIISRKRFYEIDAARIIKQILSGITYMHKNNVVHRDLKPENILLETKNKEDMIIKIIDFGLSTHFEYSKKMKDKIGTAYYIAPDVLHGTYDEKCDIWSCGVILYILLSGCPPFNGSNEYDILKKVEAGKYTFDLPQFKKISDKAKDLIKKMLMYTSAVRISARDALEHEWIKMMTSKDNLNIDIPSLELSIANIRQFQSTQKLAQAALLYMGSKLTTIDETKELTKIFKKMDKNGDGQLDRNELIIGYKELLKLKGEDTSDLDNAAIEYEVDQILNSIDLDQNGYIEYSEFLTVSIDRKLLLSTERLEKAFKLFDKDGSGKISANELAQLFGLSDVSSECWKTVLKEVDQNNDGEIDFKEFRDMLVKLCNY
Nature of the assay: MMV: CDPK4 Protein kinase inhibition assay using recombinant PfCDPK4, syntide2 peptide substrate, ATP and KinaseGlo to measure % inhibition at 1 uM MMV box compound.

The target in a further assay is T5, Proline--tRNA ligase (Plasmodium falciparum (isolate 3D7), UniProt Q8I5R7).
T5 sequence (Q8I5R7 whole entry): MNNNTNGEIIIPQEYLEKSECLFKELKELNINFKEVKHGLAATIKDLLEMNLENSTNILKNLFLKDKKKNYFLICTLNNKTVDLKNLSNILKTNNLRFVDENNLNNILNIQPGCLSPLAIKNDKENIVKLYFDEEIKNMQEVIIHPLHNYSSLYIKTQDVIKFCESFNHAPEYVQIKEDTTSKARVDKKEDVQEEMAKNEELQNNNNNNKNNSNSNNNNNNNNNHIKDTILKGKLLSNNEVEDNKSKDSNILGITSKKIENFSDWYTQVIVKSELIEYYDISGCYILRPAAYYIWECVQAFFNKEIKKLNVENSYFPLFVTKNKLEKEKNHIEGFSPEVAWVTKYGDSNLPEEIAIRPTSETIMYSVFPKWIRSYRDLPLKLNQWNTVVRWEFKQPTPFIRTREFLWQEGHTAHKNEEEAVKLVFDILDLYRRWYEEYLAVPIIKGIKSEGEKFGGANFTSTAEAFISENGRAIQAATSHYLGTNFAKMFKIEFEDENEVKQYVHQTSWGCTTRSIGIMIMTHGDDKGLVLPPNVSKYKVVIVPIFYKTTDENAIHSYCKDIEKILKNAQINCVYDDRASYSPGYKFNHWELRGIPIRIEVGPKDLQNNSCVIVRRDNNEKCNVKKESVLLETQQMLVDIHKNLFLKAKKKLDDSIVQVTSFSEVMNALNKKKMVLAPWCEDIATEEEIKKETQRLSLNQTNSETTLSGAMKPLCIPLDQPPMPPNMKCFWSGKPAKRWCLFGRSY
Nature of the assay: MMV: ProRS recombinant Plasmodium falciparum Prolyl-tRNA-synthetase, assay with yeast tRNA, ATP, and proline and 3 uM MMV malaria box compound, assay read out with kinase glo as % inhibition.

The target of the next assay is Lysine--tRNA ligase (Plasmodium falciparum (isolate 3D7), UniProt Q8IDJ8). The experiment in a line: MMV: KRS recombinant Plasmodium falciparum Lysyl-tRNA-synthetase, assay with yeast tRNA, ATP, and lysine and 3 uM MMV malaria box compound, assay read out with kinase glo as % inhibition.
Sequence of Lysine--tRNA ligase (Q8IDJ8 whole entry): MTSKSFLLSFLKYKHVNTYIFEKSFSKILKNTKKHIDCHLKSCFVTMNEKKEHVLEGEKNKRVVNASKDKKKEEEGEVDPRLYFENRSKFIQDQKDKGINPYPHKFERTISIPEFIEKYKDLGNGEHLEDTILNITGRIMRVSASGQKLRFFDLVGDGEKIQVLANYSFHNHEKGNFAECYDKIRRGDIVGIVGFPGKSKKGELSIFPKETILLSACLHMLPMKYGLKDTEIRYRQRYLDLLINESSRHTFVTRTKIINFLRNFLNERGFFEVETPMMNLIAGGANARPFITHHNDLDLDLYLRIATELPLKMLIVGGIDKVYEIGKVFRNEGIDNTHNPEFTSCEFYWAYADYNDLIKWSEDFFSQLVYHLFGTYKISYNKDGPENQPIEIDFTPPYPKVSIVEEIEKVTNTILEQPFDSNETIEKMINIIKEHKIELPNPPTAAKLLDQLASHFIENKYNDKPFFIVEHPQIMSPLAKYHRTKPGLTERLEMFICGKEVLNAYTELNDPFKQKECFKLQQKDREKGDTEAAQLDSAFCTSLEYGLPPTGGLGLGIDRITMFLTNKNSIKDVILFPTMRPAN

Sequence of Calcium-dependent protein kinase 1 (P62344 whole entry): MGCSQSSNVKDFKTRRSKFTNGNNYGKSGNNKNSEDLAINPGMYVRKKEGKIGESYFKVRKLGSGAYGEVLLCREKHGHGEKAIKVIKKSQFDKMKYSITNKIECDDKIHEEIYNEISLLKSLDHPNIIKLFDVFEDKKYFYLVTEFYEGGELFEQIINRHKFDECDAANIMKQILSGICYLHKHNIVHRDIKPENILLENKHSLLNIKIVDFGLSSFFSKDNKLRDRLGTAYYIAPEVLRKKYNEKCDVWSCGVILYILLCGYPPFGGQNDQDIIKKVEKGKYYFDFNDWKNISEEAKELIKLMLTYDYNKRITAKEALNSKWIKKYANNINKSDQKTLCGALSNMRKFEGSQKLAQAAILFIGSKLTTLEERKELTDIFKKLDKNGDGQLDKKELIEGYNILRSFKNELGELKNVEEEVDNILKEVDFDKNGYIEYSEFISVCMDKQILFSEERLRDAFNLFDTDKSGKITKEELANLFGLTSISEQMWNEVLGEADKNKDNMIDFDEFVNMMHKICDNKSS

One may read the IC50 as the point on the concentration scale where inhibition reaches its midpoint. With `Cc1cc(C)cc(Nc2cc(C)nc3nc(C(F)(F)F)nn23)c1`, the IC50 in assay [1] was greater than 1000 nM; in assay [2] it was greater than 1000 nM; in assay [3], greater than 1000 nM; in assay [4], greater than 1000 nM; in assay [5] it was greater than 1000 nM; at Proline--tRNA ligase, greater than 2500 nM. In addition, on Lysine--tRNA ligase, the IC50 was greater than 2500 nM.

On to `Cc1ccc(-c2cc3c(SCC(=O)Nc4cc(C(F)(F)F)ccc4Cl)nccn3n2)cc1`, for which the IC50 was greater than 1000 nM in assay [1]; greater than 1000 nM in assay [2]; greater than 1000 nM in assay [3]; greater than 1000 nM in assay [4]; greater than 1000 nM in assay [5]; greater than 2500 nM at Proline--tRNA ligase. Besides, the IC50 on Lysine--tRNA ligase is greater than 2500 nM.

As for `Cc1ccc(N2C(=O)C3C(C2=O)C2(c4ccccc4)C(=O)C3(c3ccccc3)C(c3ccccc3)=C2c2ccccc2)cc1` (stereo not drawn), the IC50 is greater than 1000 nM in assay [1]; greater than 1000 nM in assay [2]; greater than 1000 nM in assay [3]; greater than 1000 nM in assay [4]; greater than 1000 nM in assay [5]; greater than 2500 nM at Proline--tRNA ligase. Further, on Lysine--tRNA ligase, the IC50 is greater than 2500 nM.

Turning to `CCc1c(C)c(=N)c2ccccc2n1C`, the IC50 in assay [1] is greater than 1000 nM; in assay [2], greater than 1000 nM; in assay [3], greater than 1000 nM; in assay [4] it was greater than 1000 nM; in assay [5] it was greater than 1000 nM; at Proline--tRNA ligase, greater than 2500 nM. Also, the IC50 on Lysine--tRNA ligase was greater than 2500 nM.

Consider `CCOC(=O)C1=C(c2ccccc2)N=c2sc(=Cc3cc(C)n(-c4ccc(F)cc4)c3C)c(=O)n2C1c1cccc(OC)c1OC` (stereo not drawn), for which the IC50 in assay [1] was greater than 1000 nM; in assay [2], greater than 1000 nM; in assay [3], greater than 1000 nM; in assay [4], greater than 1000 nM; in assay [5], greater than 1000 nM; on Proline--tRNA ligase it was greater than 2500 nM. Also, the IC50 on Lysine--tRNA ligase is greater than 2500 nM.

With `CCC1(C)CC(CCNCc2ccccc2O)(c2ccc(C)cc2)CCO1` (stereo not drawn), the IC50 was greater than 1000 nM in assay [1]; greater than 1000 nM in assay [2]; greater than 1000 nM in assay [3]; greater than 1000 nM in assay [4]; greater than 1000 nM in assay [5]; greater than 2500 nM at Proline--tRNA ligase. The IC50 on Lysine--tRNA ligase was greater than 2500 nM.

Take `Cc1cccc(Nc2nc(N)c3ccccc3n2)c1`: the IC50 is greater than 1000 nM in assay [1]; greater than 1000 nM in assay [2]; greater than 1000 nM in assay [3]; greater than 1000 nM in assay [4]; greater than 1000 nM in assay [5]; greater than 2500 nM at Proline--tRNA ligase. Moreover, the IC50 on Lysine--tRNA ligase is greater than 2500 nM.

As for `CCn1c(CN2CCN(Cc3ccccc3)CC2)nc2cc(NC(=O)c3cccs3)ccc21`, the IC50 in assay [1] was greater than 1000 nM; in assay [2] it was greater than 1000 nM; in assay [3] it was greater than 1000 nM; in assay [4] it was greater than 1000 nM; in assay [5], greater than 1000 nM; on Proline--tRNA ligase it was greater than 2500 nM. In addition, at Lysine--tRNA ligase, the IC50 was greater than 2500 nM.

On to `COc1cc(OC)c(N(C)C(=O)c2cc3c(s2)-c2ccccc2S(=O)(=O)C3)cc1Cl`, for which the IC50 in assay [1] is greater than 1000 nM; in assay [2], greater than 1000 nM; in assay [3] it was greater than 1000 nM; in assay [4] it was greater than 1000 nM; in assay [5], greater than 1000 nM; on Proline--tRNA ligase, greater than 2500 nM. Moreover, the IC50 at Lysine--tRNA ligase is greater than 2500 nM.

For the molecule `COc1ccccc1CNC(=O)CCn1c(=O)[nH]c2ccsc2c1=O`, the IC50 in assay [1] was greater than 1000 nM; in assay [2], greater than 1000 nM; in assay [3] it was greater than 1000 nM; in assay [4], greater than 1000 nM; in assay [5] it was greater than 1000 nM; at Proline--tRNA ligase it was greater than 2500 nM. At Lysine--tRNA ligase, the IC50 was greater than 2500 nM.

Consider `COc1ccc(Br)cc1C1Nc2ccc3ccccc3c2C2=C1C(=O)CC(c1ccccc1)C2` (stereo not drawn), for which the IC50 was greater than 1000 nM in assay [1]; greater than 1000 nM in assay [2]; greater than 1000 nM in assay [3]; greater than 1000 nM in assay [4]; greater than 1000 nM in assay [5]; greater than 2500 nM at Proline--tRNA ligase. Moreover, the IC50 on Lysine--tRNA ligase was greater than 2500 nM.

As to `Cc1cc(C=C2SC(=Nc3ccccc3)N(C3CCCC3)C2=O)c(C)n1-c1ccc(Cl)cc1`, the IC50 in assay [1] was greater than 1000 nM; in assay [2] it was greater than 1000 nM; in assay [3], greater than 1000 nM; in assay [4] it was greater than 1000 nM; in assay [5] it was greater than 1000 nM; at Proline--tRNA ligase it was greater than 2500 nM. Also, at Lysine--tRNA ligase, the IC50 is greater than 2500 nM.

In the case of `CCc1ccc(Nc2cc(C)c3ccc(O)cc3n2)cc1`, the IC50 in assay [1] is greater than 1000 nM; in assay [2] it was greater than 1000 nM; in assay [3] it was greater than 1000 nM; in assay [4], greater than 1000 nM; in assay [5], greater than 1000 nM; on Proline--tRNA ligase, greater than 2500 nM. At Lysine--tRNA ligase, the IC50 is greater than 2500 nM.

For the molecule `CCOC(=O)c1cnc2c(C)cc(C)cc2c1Nc1ccc(OC)c(OC)c1`, the IC50 is greater than 1000 nM in assay [1]; greater than 1000 nM in assay [2]; greater than 1000 nM in assay [3]; greater than 1000 nM in assay [4]; greater than 1000 nM in assay [5]; greater than 2500 nM at Proline--tRNA ligase. In addition, the IC50 on Lysine--tRNA ligase was greater than 2500 nM.
